Experimental data: patent US10653688B2, “6-(6-membered heteroaryl and aryl)isoquinolin-3-yl carboxamides and preparation and use thereof” (Samumed, LLC, priority 2017, dated 2020)
Like-named read-outs stand apart in the source and are kept apart here.

Assays:
[1] = system: Wnt activity (SW480 colon carcinoma cells stably expressing the Sp5-Luc reporter gene); test: Wnt activity screening assay (Sp5-Luc reporter gene assay); type: cell-based, human; details: Homo sapiens; for EC50: 36 to 48 hours; for inhibition at 10 µM: read-out: percent inhibition at 10 μM (given for EC50 >10 μM), 10 μM
Text: The screening assay for Wnt activity is described as follows. Reporter cell lines can be generated by stably transducing cancer cell lines (e.g., colon cancer) or primary cells (e.g., IEC-6 intestinal cells) with a lentiviral construct that includes a Wnt-responsive promoter driving expression of the firefly luciferase gene.
SW480 colon carcinoma cells were transduced with a lentiviral vector expressing luciferase with a human Sp5 promoter consisting of a sequence of eight TCF/LEF binding sites. SW480 cells stably expressing the Sp5-Luc reporter gene and a hygromycin resistance gene were selected by treatment with 150 μg/mL of hygromycin for 7 days. These stably transduced SW480 cells were expanded in cell culture and used for all further screening activities. […] For Sp5-Luc reporter gene assays, the cells were plated at 4,000 cells/well in 384-well plates with a DMEM medium containing 1% fetal bovine serum, and 1% Penicillin-Streptomycin and incubated for 36 to 48 hours at 37° C. and 5% CO2. Following incubation, 15 μl of BriteLite Plus luminescence reagent (Perkin Elmer) was added to each well of the 384-well assay plates. The plates were placed on an orbital shaker for 2 min and then luminescence was quantified using the Envision (Perkin Elmer) plate reader. Readings were normalized to DMSO only treated cells, and normalized activities were utilized for EC50 calculations using the dose-response log (inhibitor) vs. response-variable slope (four parameters) nonlinear regression feature available in GraphPad Prism 5.0 (or Dotmatics).

recombinant GSK3β kinase = recombinant GSK3β kinase (Homo sapiens (Human), UniProt P49841); test: GSK3β kinase assay (Ser/Thr 09 peptide Z-lyte, FRET); type: biochemical;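 note: FRET read-out as coumarin over fluorescein emission ratio, compounds incubated one hour at room temperature, IC50 from dose-response curve fit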
Sequence of recombinant GSK3β kinase (P49841 whole entry): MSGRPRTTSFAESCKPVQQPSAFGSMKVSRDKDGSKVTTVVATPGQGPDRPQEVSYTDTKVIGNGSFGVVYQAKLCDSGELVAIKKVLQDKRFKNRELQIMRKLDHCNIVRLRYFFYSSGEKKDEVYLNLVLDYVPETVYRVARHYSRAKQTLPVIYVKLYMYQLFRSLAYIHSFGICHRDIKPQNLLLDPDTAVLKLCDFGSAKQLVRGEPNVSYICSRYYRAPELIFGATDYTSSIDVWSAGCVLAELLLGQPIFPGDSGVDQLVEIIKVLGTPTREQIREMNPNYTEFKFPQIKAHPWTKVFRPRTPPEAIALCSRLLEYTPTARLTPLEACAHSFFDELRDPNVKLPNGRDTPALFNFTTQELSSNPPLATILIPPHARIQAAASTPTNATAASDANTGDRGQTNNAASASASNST

[2] = system: SW480 colon carcinoma cells; test: Cell viability assay (CellTiter-Glo); type: cell-based, human; details: Homo sapiens; for EC50: 96 h, four days, CellTiter-Glo; for inhibition at 10 µM: read-out: percent inhibition at 10 μM (given for EC50 >10 μM), 10 μM
Description: SW480 colon carcinoma cells were transduced with a lentiviral vector expressing luciferase with a human Sp5 promoter consisting of a sequence of eight TCF/LEF binding sites. SW480 cells stably expressing the Sp5-Luc reporter gene and a hygromycin resistance gene were selected by treatment with 150 μg/mL of hygromycin for 7 days. These stably transduced SW480 cells were expanded in cell culture and used for all further screening activities.
For the Cell Viability Assays, the cells were plated at 2,000 cells/well in 384-well plates with a DMEM medium containing 1% fetal bovine serum, and 1% Penicillin-Streptomycin and incubated for […] at 37° C. and 5% CO2. Eight replicates of DMSO-treated cells served as controls and cells treated with compound were performed in duplicate.
After incubation, 10 μL of CellTiter-Glo (Promega) was added to each well allowed to incubate for approximately 12 minutes. This reagent “results in cell lysis and generation of a luminescent signal proportional to the amount of ATP present. The amount of ATP is directly proportional to the number of cells present in culture, in agreement with previous reports. The CellTiter-Glo Assay generates a “glow-type” luminescent signal, produced by the luciferase reaction (Promega.com)”.

[3] = system: LL29 cells (primary human fibroblasts derived from IPF patients), α-smooth muscle actin; test: Inhibition of fibrotic process: TGF-β1-treated primary human fibroblasts, αSMA staining; type: cell-based; details: Homo sapiens, Fibroblast; for EC50: 96 h, TGF-β1 20 ng/mL, 4 days, % cells positive for αSMA; for inhibition at 10 µM: read-out: percent inhibition at 10 μM (given for EC50 >10 μM), TGF-β1, αSMA, 10 μM;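 for all read-outs here: controls were TGF-β1-stimulated wells with DMSO vehicle as the positive reference and cells given DMSO alone as the negative reference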
Description: Representative compounds were screened using primary human fibroblasts (derived from IPF patients) treated with TGF-β1 to determine their ability to inhibit the fibrotic process.
Human Fibroblast Cell Culture:
Each compound was dissolved in DMSO as a 10 mM stock and used to prepare compound source plates. […] LL29 cells were plated at 1,500 cells/well in 70 μL/well F12 medium supplemented with 1% Fetal Bovine Serum. […] Wells treated with TGF-β1 and containing DMSO were used as positive control, and cells with only DMSO were negative control. Cells were incubated at 37° C. and 5% CO2 for 4 days. Following incubation for 4 days, SYTOX green nucleic acid stain (Life Technologies [Thermo Fisher Scientific]) was added to the wells at a final concentration of 1 μM and incubated at room temperature for 30 min. Cells were then fixed using 4% formaldehyde (Electron Microscopy Sciences), washed 3 times with PBS followed by blocking and permeabilization using 3% Bovine Serum Albumin (BSA; Sigma) and 0.3% Triton X-100 (Sigma) in PBS.

[4] = system: IL-6 in human peripheral blood mononuclear cells (huPBMCs); test: IL-6 inhibition in LPS-stimulated human peripheral blood mononuclear cells (HTRF); type: cell-based; details: Homo sapiens, PBMC; for EC50: LPS 50 ng/mL, 22 hours, IL-6 HTRF; for inhibition at 10 µM: read-out: percent inhibition at 10 μM (given for EC50 >10 μM), LPS, IL-6, 10 μM
Description: Human Peripheral Blood Mononuclear Cells:
Fresh Normal PB MNC (Catalog # PB001, AllCells, Alameda, Calif.) were shipped overnight at 4° C. and resuspended in Roswell Park Memorial Institute (RPMI) 1640 Medium, with GlutaMAX Supplement (Catalog #61870127, ThermoFisher Scientific, Waltham, Mass.) supplemented with 1% Penicillin-Streptomycin (Catalog #15140163, ThermoFisher Scientific, Waltham, Mass.) and 1% fetal bovine serum (FBS) (Catalog #16140089, ThermoFisher Scientific, Waltham, Mass.) assay media.
Fresh normal human peripheral blood mononuclear cells (huPBMCs) were resuspended in 1% FBS-RPMI assay media with 1% Penicillin-Streptomycin 1% to a cell concentration of 1×10e6 cells/mL. […] 50 ng/mL of Lipopolysaccharides from Escherichia coli 0111:B4 (Catalog # L5293-2ML, Sigma-Aldrich, St. Louis, Mo.) was added after 2 hours and cells were incubated for another 22 hours at 37° C.-5% CO2. After 22 hour incubation, a mixture of anti-IL6 XL665 and anti-IL-6 Cryptate diluted in reconstitution buffer (Catalog #62IL6PEC, Cisbio Inc., Bedford, Mass.) was added to each well. Following incubation for 3 hours at room temperature, Homogeneous Time-Resolved Fluorescence (HTRF) was measured using the Envision (Perkin Elmer, Shelton, Conn.) at 665 nm and […]. The ratio of fluorescence at 665 nm to 620 nm was used as a readout for IL-6 quantification. All samples were processed in duplicate. Readings were normalized to DMSO treated cells and normalized activities were utilized for EC50 calculations. EC50 was determined using software generated by Dotmatics Limited (Windhill Bishops Stortford Herts, UK) using the Levenberg-Marquardt 4 parameter fitting procedure with finite different gradients.

[5] = biological target: recombinant DYRK1A kinase (Homo sapiens (Human), UniProt Q13627); test: DYRK1A kinase assay (Ser/Thr 18 peptide Z-lyte, FRET)
[6] = GSK3β kinase, head says EC50, method says IC50, ATP 46 μM
[7] = DYRK1A kinase, head says EC50, method says IC50, ATP 30 μM

SMILES | EC50 [1] [µM] | EC50 (recombinant GSK3β kinase) [µM] | EC50 [2] [µM] | EC50 [3] [µM] | EC50 [4] [µM] | EC50 [5] [µM] | inhibition at 10 µM [4] [%] | EC50 (recombinant GSK3β kinase; [6]) [µM] | EC50 [5, 7] [µM] | inhibition at 10 µM [2] [%] | inhibition at 10 µM [3] [%] | inhibition at 10 µM [1] [%]
CN1CCN(c2cc(C(=O)Nc3cc4cc(-c5ccc(N)nc5)ccc4cn3)ccn2)CC1 [Compound 39, N-(6-(6-Aminopyridin-3-yl)isoquinolin-3-yl)-2-(4-methylpiperazin-1-yl) isonicotinamide] | 0.71 | > 10 | 2.71 | 2.48 | 3.39 | 0.012 |  |  |  |  |  | 
CNc1ccc(-c2ccc3cnc(NC(=O)c4ccnc(N5CCN(C)CC5)c4)cc3c2)cn1 [Compound 40, N-(6-(6-(Methylamino)pyridin-3-yl)isoquinolin-3-yl)-2-(4-methylpiperazin-1-yl)isonicotinamide] | 4.12 | > 10 | 3.37 | 1.47 | > 10 | 0.064 | 3.7 |  |  |  |  | 
CC(C)Nc1cncc(-c2ccc3cnc(NC(=O)c4cccc(C5CCNCC5)c4)cc3c2)c1 [Compound 41, N-(6-(5-(Isopropylamino)pyridin-3-yl)isoquinolin-3-yl)-3-(piperidin-4-yl) benzamide] | 0.573 |  | 0.636 | 0.571 | 1.11 |  |  | > 10 | 0.004 |  |  | 
CC(C)Nc1cncc(-c2ccc3cnc(NC(=O)c4cccc(C5CCN(C)CC5)c4)cc3c2)c1 [Compound 42, N-(6-(5-(Isopropylamino)pyridin-3-yl)isoquinolin-3-yl)-3-(1-methylpiperidin-4-yl)benzamide] | 0.403 |  | 0.491 | 0.631 | 1.1 |  |  | > 10 | 0.003 |  |  | 
CC(C)Nc1cncc(-c2ccc3cnc(NC(=O)c4ccnc(N5CCN(C)CC5)c4)cc3c2)c1 [Compound 43, N-(6-(5-(Isopropylamino)pyridin-3-yl)isoquinolin-3-yl)-2-(4-methylpiperazin-1-yl)isonicotinamide] | 0.275 |  | 0.467 | 0.217 | 2.06 |  |  | > 10 | 0.002 |  |  | 
O=C(Nc1cc2cc(-c3cncc(NC4CCNCC4)c3)ccc2cn1)c1ccc(F)cc1 [Compound 45, 4-fluoro-N-(6-(5-(piperidin-4-ylamino)pyridin-3-yl)isoquinolin-3-yl) benzamide] | 0.698 | > 10 | 0.865 | 0.622 | 1.13 | 0.009 |  |  |  |  |  | 
CN1CCC(Nc2cncc(-c3ccc4cnc(NC(=O)c5ccc(F)cc5)cc4c3)c2)CC1 [Compound 46, 4-Fluoro-N-(6-(5-((1-methylpiperidin-4-yl)amino)pyridin-3-yl)isoquinolin-3-yl)benzamide] | 4.41 |  | 4.25 | 0.682 | 1.38 |  |  | 7.09 | 0.003 |  |  | 
CN1CCN(c2cc(C(=O)Nc3cc4cc(-c5cncc(N(C)C)c5)ccc4cn3)ccn2)CC1 [Compound 48, N-(6-(5-(Dimethylamino)pyridin-3-yl)isoquinolin-3-yl)-2-(4-methylpiperazin-1-yl)isonicotinamide] | 2.32 | > 10 | 6.56 | 4.88 | 9.68 | 0.04 |  |  |  |  |  | 
CN1CCN(c2cc(C(=O)Nc3cc4cc(-c5ccc(N(C)C)nc5)ccc4cn3)ccn2)CC1 [Compound 49, N-(6-(6-(Dimethylamino)pyridin-3-yl)isoquinolin-3-yl)-2-(4-methylpiperazin-1-yl)isonicotinamide] | > 10 |  | > 10 | > 10 | > 10 |  | 0 | > 10 | 0.904 | 37.1 | 33.5 | 
O=C(Nc1cc2cc(-c3cncc(CN4CCCC4)c3)ccc2cn1)c1ccc(F)cc1 [Compound 52, 4-Fluoro-N-(6-(5-(pyrrolidin-1-ylmethyl)pyridin-3-yl)isoquinolin-3-yl) benzamide] | > 10 |  | 6.92 | > 10 | > 10 |  | 17.6 | > 10 | 0.012 |  | 37.1 | 17.7
O=C(Nc1cc2cc(-c3cncc(CN4CCC(O)CC4)c3)ccc2cn1)c1ccc(F)cc1 [Compound 54, 4-Fluoro-N-(6-(5-((4-hydroxypiperidin-1-yl)methyl)pyridin-3-yl)isoquinolin-3-yl)benzamide] | 0.382 | > 10 | 0.647 | > 10 | > 10 | 0.003 | 17.9 |  |  |  | 11.2 | 
CNC(=O)c1cncc(-c2ccc3cnc(NC(=O)c4ccnc(N5CCN(C)CC5)c4)cc3c2)c1 [Compound 59, N-methyl-5-(3-(2-(4-methylpiperazin-1-yl)isonicotinamido)isoquinolin-6-yl)nicotinamide] | 0.866 |  | 2.32 | 0.705 | > 10 |  | 4.7 | > 10 | 0.006 |  |  | 
Cc1ncc(-c2ccc3cnc(NC(=O)c4ccnc(N5CCN(C)CC5)c4)cc3c2)cn1 [Compound 64, 2-(4-Methylpiperazin-1-yl)-N-(6-(2-methylpyrimidin-5-yl)isoquinolin-3-yl)isonicotinamide] | > 10 |  | 8.02 | 2 | > 10 |  | 5.7 | > 10 | 0.158 |  |  | 28.7
O=C(CN1CCCC1)Nc1cc2cc(-c3ccnnc3)ccc2cn1 [Compound 68, N-(6-(Pyridazin-4-yl)isoquinolin-3-yl)-2-(pyrrolidin-1-yl)acetamide] | 4.21 |  | 7.91 | 3.39 | 8.77 |  |  | 2.59 | 0.328 |  |  | 
CN1CCC(F)(C(=O)Nc2cc3cc(-c4cnccn4)ccc3cn2)CC1 [Compound 76, 4-Fluoro-1-methyl-N-(6-(pyrazin-2-yl)isoquinolin-3-yl)piperidine-4-carboxamide] | > 10 |  | > 10 | > 10 | > 10 |  | 1.6 | > 10 | 0.258 | 17.5 | 13.1 | 15.7
